# Assay results as given in US20130065756A1, “SPIROHETEROCYCLIC DIONE DERIVATIVES USED AS PESTICIDES” (SYNGENTA CROP PROTECTION LLC, priority 2009, published 2013).
# Read-outs that look alike come from different tables or passages of the source.
# How the values were obtained:
# [1] = tested on: Thrips tabaci (onion thrips); test: Example B3: Thrips tabaci, mixed population, feeding/residual contact activity, preventive; conditions: foliar, 144 h, read-out: activity (mortality)
# pepper plants = conditions: in vivo, 6 days, 200 ppm
# Protocol: (§1) (Mixed Population, Feeding/Residual Contact Activity, Plant Damage Evaluation)
# (§2) Pepper [P] or cabbage […] plants infested with a mixed population of Myzus persicae are treated with diluted test solutions of the compounds in a spray chamber. 6 days after treatment, samples are checked for mortality and for plant damage (phytotoxicity), visual assessment being made using a 0-100% rating scale (100%=total damage to plant; 0%=no damage to plant).
# [2] = tested on: Aphis Craccivora (cowpea aphid); test: Example B7: translaminar activity against Aphis craccivora; format: in vivo; conditions: 120 h, upper side of French bean leaves painted, 5 days
# Protocol: Translaminar Activity Against Aphis Craccivora (Cowpea Aphid)
# French bean leaves (Phaseolus vulgaris) are infested with about 20 mixed age individuals on the lower leaf side using clip cages. 1 day after the infestation, the upper side of the leaves is treated with the test solution by painting. 5 days later, samples are checked for mortality.
# [3] = tested on: Tetranychus urticae (two-spotted spider mite); test: Example B4: Tetranychus urticae, mixed population, feeding/residual contact activity, preventive; conditions: foliar, 192 h, read-out: activity (egg, larval and adult mortality)
# [4] = tested on: Myzus persicae (green peach aphid); test: Example B9: Myzus persicae on pepper or cabbage plants, feeding/residual contact activity; format: in vivo; conditions: 144 h, 6 days, read-out: activity against Myzus persicae (mortality)
# [5] = tested on: Nilaparvata lugens (brown rice planthopper); test: Example B6: Nilaparvata lugens, larvicide, feeding/contact; conditions: in Oryza sativa, read-out: activity (mortality, growth regulation, effects on F1 generation)
# [6] = tested on: Myzus persicae (green peach aphid); test: Example B8: drench activity against Myzus persicae; conditions: soil, 168 h, read-out: activity (mortality), drench
# cabbage plants = conditions: in vivo, 6 days, 200 ppm
# Protocol: as §1, §2
# [7] = tested on: Myzus persicae (green peach aphid); test: Example B1: Myzus persicae, mixed population, feeding/residual contact activity, preventive; format: in vivo; conditions: foliar, 144 h, sprayed sunflower leaf discs, 6 days
# [8] = tested on: Myzus persicae (green peach aphid); test: Example B2: Myzus persicae, mixed population, systemic/feeding activity, curative; conditions: 144 h, read-out: activity (mortality)
Structure (SMILES),mortality at 400 ppm [1] [%],damage to pepper plants (phytotoxicity) (pepper plants) [%],mortality at 400 ppm [2] [%],mortality at 400 ppm [3] [%],mortality at 200 ppm ([4]; pepper [P] plants sprayed) [%],mortality at 400 ppm [5] [%],mortality at 25 ppm [6] [%],damage to cabbage plants (phytotoxicity) (cabbage plants) [%],mortality at 400 ppm [7] [%],mortality at 400 ppm [8] [%],mortality at 200 ppm ([4]; cabbage [C] plants sprayed) [%]
"CON1CCC2(CC1)C(=O)C(c1c(C)cc(C)cc1C)C(=O)N2N(C)C (centres unmarked) [A1, 1-Dimethylamino-8-methoxy-3-(2,4,6-trimethyl-phenyl)-1,8-diaza-spiro[4.5]decane-2,4-dione]",> 80,≤ 10,> 80,> 80,≥ 80,> 80,> 80,–,–,–,–
CCOC(=O)OC1=C(c2c(C)cc(Cl)cc2C)C(=O)N(N2CCOCC2)C12CCN(OC)CC2 [B4],–,–,–,> 80,–,–,–,≤ 10,> 80,> 80,≥ 80
"CCOC(=O)OC1=C(c2c(C)cc(C)cc2C)C(=O)N(N(C)C)C12CCN(OC)CC2 [A2, Carbonic acid 1-dimethylamino-8-methoxy-2-oxo-3-(2,4,6-trimethyl-phenyl)-1,8-diaza-spiro[4.5]dec-3-en-4-yl ester ethyl ester]",–,≤ 10,> 80,> 80,≥ 80,> 80,> 80,–,–,> 80,–
CCOC(=O)OC1=C(c2cc(C)ccc2C)C(=O)N(N2CCOCC2)C12CCN(OC)CC2 [B6],–,–,–,–,–,–,–,≤ 10,–,> 80,≥ 80
CON1CCC2(CC1)C(O)=C(c1c(C)cc(Cl)cc1C)C(=O)N2N1CCOCC1 [B3],–,–,–,> 80,–,–,–,≤ 10,> 80,> 80,≥ 80
CON1CCC2(CC1)C(O)=C(c1c(C)cc(C)cc1C)C(=O)N2N1CCOCC1 [B1],–,–,–,> 80,–,–,–,≤ 10,> 80,> 80,≥ 80
CCOC(=O)OC1=C(c2c(C)cc(Cl)cc2C)C(=O)N(N(C)C)C12CCN(OC)CC2 [A4],–,≤ 10,–,> 80,≥ 80,–,–,–,> 80,> 80,–
CON1CCC2(CC1)C(O)=C(c1cc(C)ccc1C)C(=O)N2N(C)C [A5],–,≤ 10,–,–,≥ 80,–,–,–,–,–,–
CON1CCC2(CC1)C(O)=C(c1cc(C)ccc1C)C(=O)N2N1CCOCC1 [B5],–,–,–,–,–,–,–,≤ 10,–,> 80,≥ 80
CON1CCC2(CC1)C(O)=C(c1c(C)cc(Cl)cc1C)C(=O)N2N(C)C [A3],–,–,–,> 80,–,–,–,–,–,–,–
CCOC(=O)OC1=C(c2c(C)cc(C)cc2C)C(=O)N(N2CCOCC2)C12CCN(OC)CC2 [B2],–,–,–,–,–,–,–,≤ 10,> 80,> 80,≥ 80
